In PubChem BioAssay AID180 (DTP/NCI, 2004):
“And” between values parts separate entries of the source, which are not always exact repeats. Identical values can stand only once.

Test system: BDF1 mice, Adenocarcinoma 755 s.c., tumor weight T/C
Experiment: NCI In Vivo Anticancer Drug Screen. Data for tumor model Adenocarcinoma 755 (subcutaneous) in B6D2F1 (BDF1) mice
Settings: endpoint: mean tumor weight, higher = larger tumour
How it was run: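 Compound activity was tested in mice carrying transplanted tumors. Survival or tumor size was measured, and each value is the treated-group measurement divided by that of the vehicle-treated control group (T/C).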

[1] = dose: 100.0 mg/kg/injection, schedule: Q01DX011 (ip), vehicle: carboxymethylcellulose (CMC)
[2] = dose: 25.0 mg/kg/injection, schedule: Q01DX011 (ip), vehicle: saline

## CN1CCC(OC(N)=O)CC1
dose: 44.0 mg/kg/injection, schedule: Q01DX011 (ip), vehicle: carboxymethylcellulose (CMC)
  T/C: 84 % of control
dose: 87.5 mg/kg/injection, schedule: Q01DX011 (ip), vehicle: carboxymethylcellulose (CMC)
  T/C: 96 % of control
[1]
  T/C: 70 % of control
dose: 155.0 mg/kg/injection, schedule: Q01DX011 (ip), vehicle: carboxymethylcellulose (CMC)
  T/C: 54 % of control
dose: 175.0 mg/kg/injection, schedule: Q01DX011 (ip), vehicle: carboxymethylcellulose (CMC)
  T/C: 65 % of control
dose: 230.0 mg/kg/injection, schedule: Q01DX011 (ip), vehicle: carboxymethylcellulose (CMC)
  T/C: 46 % of control
dose: 525.0 mg/kg/injection, schedule: Q01DX011 (ip), vehicle: carboxymethylcellulose (CMC)
  T/C: 43 % of control

## CC1CN1P(=O)(N1CCc2ccccc21)N1CC1C (centres undefined)
dose: 28.0 mg/kg/injection, schedule: Q01DX011 (ip), vehicle: carboxymethylcellulose (CMC)
  T/C: 97 % of control
dose: 56.0 mg/kg/injection, schedule: Q01DX011 (ip), vehicle: carboxymethylcellulose (CMC)
  T/C: 67 % of control
dose: 113.0 mg/kg/injection, schedule: Q01DX011 (ip), vehicle: carboxymethylcellulose (CMC)
  T/C: 41 % of control
dose: 226.0 mg/kg/injection, schedule: Q01DX011 (ip), vehicle: carboxymethylcellulose (CMC)
  T/C: 2 % of control

## Nc1nc(SCC(=O)c2ccc(Cl)cc2)c2ncn(C3OC(CO)C(O)C3O)c2n1 (centres undefined)
dose: 37.5 mg/kg/injection, schedule: Q01DX011 (ip), vehicle: methylcellulose (MC)
  T/C: 62 % of control
dose: 75.0 mg/kg/injection, schedule: Q01DX011 (ip), vehicle: methylcellulose (MC)
  T/C: 44 % of control
dose: 150.0 mg/kg/injection, schedule: Q01DX011 (ip), vehicle: methylcellulose (MC)
  T/C: 31 % of control
dose: 300.0 mg/kg/injection, schedule: Q01DX011 (ip), vehicle: methylcellulose (MC)
  T/C: 24 % of control

## c1ccc(CSc2ncnc3nc[nH]c23)cc1
dose: 1.5 mg/kg/injection, schedule: Q01DX011 (ip), vehicle: alkali diluted with saline
  T/C: 2 % of control
dose: 1.5 mg/kg/injection, schedule: Q01DX011 (oral), vehicle: alkali diluted with saline
  T/C: 22 % of control
dose: 2.5 mg/kg/injection, schedule: Q01DX011 (ip), vehicle: saline
  T/C: 35 % of control
dose: 3.0 mg/kg/injection, schedule: Q01DX011 (ip), vehicle: alkali diluted with saline
  T/C: 44 % of control
dose: 3.0 mg/kg/injection, schedule: Q01DX011 (ip), vehicle: carboxymethylcellulose (CMC)
  T/C: 59 % of control
dose: 3.0 mg/kg/injection, schedule: Q01DX011 (oral), vehicle: alkali diluted with saline
  T/C: 28 % of control
dose: 3.1 mg/kg/injection, schedule: Q01DX011 (ip), vehicle: carboxymethylcellulose (CMC)
  T/C: 43 % of control
dose: 5.0 mg/kg/injection, schedule: Q01DX011 (ip), vehicle: saline
  T/C: 12 % of control
dose: 6.0 mg/kg/injection, schedule: Q01DX006 (iv), vehicle: saline
  T/C: 17 % of control
dose: 6.0 mg/kg/injection, schedule: Q01DX011 (im), vehicle: saline
  T/C: 12 % of control
dose: 6.0 mg/kg/injection, schedule: Q01DX011 (ip), vehicle: alkali diluted with saline
  T/C: 16 % of control
dose: 6.0 mg/kg/injection, schedule: Q01DX011 (ip), vehicle: carboxymethylcellulose (CMC)
  T/C: 22 % of control and 32 % of control
dose: 6.0 mg/kg/injection, schedule: Q01DX011 (ip), vehicle: saline
  T/C: 2 % of control
dose: 6.0 mg/kg/injection, schedule: Q01DX011 (oral), vehicle: alkali diluted with saline
  T/C: 16 % of control
dose: 6.0 mg/kg/injection, schedule: Q01DX011 (sc), vehicle: steriod suspending solution
  T/C: 9 % of control
dose: 6.2 mg/kg/injection, schedule: Q01DX011 (ip), vehicle: carboxymethylcellulose (CMC)
  T/C: 15 % of control
dose: 10.0 mg/kg/injection, schedule: Q01DX011 (ip), vehicle: saline
  T/C: 5 % of control
dose: 11.0 mg/kg/injection, schedule: Q07DX002 (ip), vehicle: alkali diluted with saline
  T/C: 39 % of control
dose: 12.0 mg/kg/injection, schedule: Q01DX006 (iv), vehicle: saline
  T/C: 2 % of control
dose: 12.0 mg/kg/injection, schedule: Q01DX011 (im), vehicle: saline
  T/C: 3 % of control
dose: 12.0 mg/kg/injection, schedule: Q01DX011 (ip), vehicle: carboxymethylcellulose (CMC)
  T/C: 3 % of control
dose: 12.0 mg/kg/injection, schedule: Q01DX011 (oral), vehicle: alkali diluted with saline
  T/C: 54 % of control
dose: 12.0 mg/kg/injection, schedule: Q01DX011 (sc), vehicle: steriod suspending solution
  T/C: 5 % of control
dose: 12.5 mg/kg/injection, schedule: Q01DX011 (ip), vehicle: carboxymethylcellulose (CMC)
  T/C: 3 % of control
dose: 13.0 mg/kg/injection, schedule: Q01DX011 (ip), vehicle: carboxymethylcellulose (CMC)
  T/C: 17 % of control
dose: 19.0 mg/kg/injection, schedule: Q03DX004 (ip), vehicle: carboxymethylcellulose (CMC)
  T/C: 31 % of control
dose: 22.0 mg/kg/injection, schedule: Q07DX002 (ip), vehicle: alkali diluted with saline
  T/C: 50 % of control
dose: 25.0 mg/kg/injection, schedule: Q01DX006 (iv), vehicle: carboxymethylcellulose (CMC)
  T/C: 9 % of control
dose: 25.0 mg/kg/injection, schedule: Q01DX006 (iv), vehicle: saline
  T/C: 3 % of control
dose: 25.0 mg/kg/injection, schedule: Q01DX011 (im), vehicle: saline
  T/C: 1 % of control
[2]
  T/C: 2 % of control
dose: 25.0 mg/kg/injection, schedule: Q01DX011 (oral), vehicle: carboxymethylcellulose (CMC)
  T/C: 10 % of control
dose: 25.0 mg/kg/injection, schedule: Q01DX011 (sc), vehicle: carboxymethylcellulose (CMC)
  T/C: 14 % of control
dose: 25.0 mg/kg/injection, schedule: Q01DX011 (sc), vehicle: steriod suspending solution
  T/C: 3 % of control
dose: 38.0 mg/kg/injection, schedule: Q03DX004 (ip), vehicle: carboxymethylcellulose (CMC)
  T/C: 2 % of control
dose: 44.0 mg/kg/injection, schedule: Q07DX002 (ip), vehicle: alkali diluted with saline
  T/C: 43 % of control
dose: 44.0 mg/kg/injection, schedule: Q07DX002 (ip), vehicle: carboxymethylcellulose (CMC)
  T/C: 5 % of control
dose: 50.0 mg/kg/injection, schedule: Q01DX006 (iv), vehicle: carboxymethylcellulose (CMC)
  T/C: 17 % of control
dose: 50.0 mg/kg/injection, schedule: Q01DX011 (im), vehicle: carboxymethylcellulose (CMC)
  T/C: 8 % of control
dose: 50.0 mg/kg/injection, schedule: Q01DX011 (ip), vehicle: carboxymethylcellulose (CMC)
  T/C: 3 % of control and 8 % of control
dose: 50.0 mg/kg/injection, schedule: Q01DX011 (oral), vehicle: carboxymethylcellulose (CMC)
  T/C: 6 % of control
dose: 50.0 mg/kg/injection, schedule: Q01DX011 (sc), vehicle: steriod suspending solution
  T/C: 1 % of control
dose: 75.0 mg/kg/injection, schedule: Q03DX004 (ip), vehicle: carboxymethylcellulose (CMC)
  T/C: 2 % of control and 13 % of control
dose: 88.0 mg/kg/injection, schedule: Q07DX002 (ip), vehicle: alkali diluted with saline
  T/C: 16 % of control
dose: 88.0 mg/kg/injection, schedule: Q07DX002 (ip), vehicle: carboxymethylcellulose (CMC)
  T/C: 45 % of control
dose: 100.0 mg/kg/injection, schedule: Q01DX011 (im), vehicle: carboxymethylcellulose (CMC)
  T/C: 1 % of control and 2 % of control
[1]
  T/C: 2 % of control
dose: 100.0 mg/kg/injection, schedule: Q01DX011 (sc), vehicle: steriod suspending solution
  T/C: 2 % of control
dose: 175.0 mg/kg/injection, schedule: Q07DX002 (ip), vehicle: carboxymethylcellulose (CMC)
  T/C: 3 % of control and 4 % of control
dose: 200.0 mg/kg/injection, schedule: Q01DX011 (im), vehicle: carboxymethylcellulose (CMC)
  T/C: 11 % of control and 17 % of control
dose: 200.0 mg/kg/injection, schedule: Q01DX011 (oral), vehicle: carboxymethylcellulose (CMC)
  T/C: 1 % of control and 6 % of control
dose: 200.0 mg/kg/injection, schedule: Q01DX011 (sc), vehicle: carboxymethylcellulose (CMC)
  T/C: 17 % of control
dose: 300.0 mg/kg/injection, schedule: Q03DX004 (ip), vehicle: carboxymethylcellulose (CMC)
  T/C: 6 % of control
dose: 350.0 mg/kg/injection, schedule: Q07DX002 (ip), vehicle: carboxymethylcellulose (CMC)
  T/C: 1 % of control and 6 % of control
dose: 600.0 mg/kg/injection, schedule: Q03DX004 (ip), vehicle: alkali diluted with saline
  T/C: 3 % of control
dose: 700.0 mg/kg/injection, schedule: Q07DX002 (ip), vehicle: carboxymethylcellulose (CMC)
  T/C: 1 % of control

## COc1cc(-c2ccc(Nc3ccccc3C(=O)O)c(OC)c2)ccc1Nc1ccccc1C(=O)O
[2]
  T/C: 75 % of control
dose: 50.0 mg/kg/injection, schedule: Q01DX011 (ip), vehicle: saline
  T/C: 28 % of control
dose: 100.0 mg/kg/injection, schedule: Q01DX011 (ip), vehicle: saline
  T/C: 5 % of control
